Measurements published in patent publication US20100324058A1 (Obschestvo S Organichennoi Otvetsttvennoctiyou "Bionika", priority 2007, published 2010).
Values belong to the compound of their own block, whether it stands above or below them.

Biological target: thrombin (Homo sapiens, UniProt P00734)
Experiment: Effect of test compounds on thrombin activity: hydrolysis rate of chromogenic (Chromozim TH) or fluorogenic (BOC-Ala-Pro-Arg-AMC) substrate
Format: biochemical
Settings: for inhibition at 0.1 µM: concentration of compound 100 nM; for inhibition at 0.2 µM: concentration of compound 200 nM; for inhibition at 0.02 µM: concentration of compound 20 nM; for inhibition at 0.04 µM: concentration of compound 40 nM; for inhibition at 0.0025 µM: concentration of compound 2.5 nM; for inhibition at 0.005 µM: concentration of compound 5 nM; for inhibition at 0.0125 µM: concentration of compound 12.5 nM; for inhibition at 0.025 µM: concentration of compound 25 nM; for inhibition at 0.05 µM: concentration of compound 50 nM; for inhibition at 0.125 µM: concentration of compound 125 nM; for inhibition at 0.25 µM: concentration of compound 250 nM; for inhibition at 0.01 µM: concentration of compound 10 nM
Excerpt: The effect of the synthesized substances on thrombin activity was studied by measuring the hydrolysis rate of specific low molecular weight substrates with thrombin in an aqueous buffering solution in the absence and presence of these compounds. One of these substrates was chromogenic substrate Chromozim TH (CTH): N-(p-Tosyl)-Gly-Pro-Arg-pNA [Sonder S A, Fenton J W 2nd. Thrombin Specificity with Tripeptide Chromogenic Substrates: Comparison of Human and Bovine Thrombins with and without Fibrinogen Clotting Activities. Clin. Chem., 1986, 32(6):934-937]. Another substrate that was used in a number of experiments was fluorogenic substrate BOC-Ala-Pro-Arg-AMC (S), wherein BOC is butoxycarbonyl residue, and AMC is 7-amino-4-methylcoumaryl [Kawabata S, Miura T, Morita T, Kato H, Fujikawa K, Ivanaga S, Takada K, Kimura T, Sakakibara S. Highly Sensitive peptide-4-methylcoumaryl-7-amide Substrates for Blood-Clotting Proteases and Trypsin. Eur. J. Biochem., 1988, 172(1):17-25].
The holes of a common 96-hole board were filled with a buffer containing 140 mM of NaCl, 20 mM of HEPES, and 0.1% polyethylene glycol (Mw=6,000), at pH=8.0. […] When a chromogenic substrate was used, accumulation of the colored reaction product—para-nitroaniline—was followed on a spectrophotometric Molecular Devices board reader (Thermomax, U.S.), measuring the increase in optical density on the 405 nm wavelength. […] The reaction kinetics was registered on a fluorometric Titertek Fluoroskan board reader (LabSystem, Finland).
The initial reaction rate was measured as the tangent of the kinetic curve inclination angle on a straight section (first 10 to 15 minutes of registration). Reaction rate without an inhibitor was a ssumed to be 100%. The mean arithmetic value of two independent measurements was used as the end result.

[1] = concentration of compound 0.5 mcM
[2] = concentration of compound 2 mcM
[3] = concentration of compound 5 mcM
[4] = concentration of compound 20 mcM
[5] = concentration of compound 50 mcM
[6] = concentration of compound 100 mcM
[7] = concentration of compound 1 mcM
[8] = concentration of compound 10 mcM
[9] = concentration of compound 2.5 mcM
[10] = concentration of compound 25 mcM
[11] = concentration of compound 250 mcM
[12] = concentration of compound 500 mcM
[13] = concentration of compound 0.25 mcM

SMILES: Cc1cc(OCCCn2ccsc2=N)cc(OS(=O)(=O)c2ccccc2)c1
inhibition at 0.1 µM: 5% | inhibition at 0.2 µM: 10% | Hydrolysis rate inhibition, % [1]: 23% | Hydrolysis rate inhibition, % [2]: 57% | Hydrolysis rate inhibition, % [3]: 73% | Hydrolysis rate inhibition, % [4]: 95% | Hydrolysis rate inhibition, % [5]: 95% | Hydrolysis rate inhibition, % [6]: 96% | Hydrolysis rate inhibition, % (concentration of compound 200 mcM): 97%

SMILES: Cc1cc(OCCC[n+]2ccc(N)cc2)cc(OS(=O)(=O)c2ccccc2)c1 [HC-016s-IOC, 4-amino-1-(3-(3-methyl-5-(benzenesulfonyloxy)phenoxy)propyl)-pyridinium iodide]
inhibition at 250 µM (concentration of compound 0.25 mM): 84% | inhibition at 500 µM (concentration of compound 0.5 mM): 100%

SMILES: Cc1cc(OCCCSC(=N)N)cc(OS(=O)(=O)c2ccccc2)c1.I [HC-018s-IOC, 3-(3-methyl-5-(benzenesulfonyloxy)phenoxy)propyl-isothiouronium iodide]
inhibition at 0.02 µM: 16% | inhibition at 0.04 µM: 33% | inhibition at 0.1 µM: 49% | inhibition at 0.2 µM: 64% | Hydrolysis rate inhibition, % [1]: 93% | Hydrolysis rate inhibition, % [7]: 98% | Hydrolysis rate inhibition, % [2]: 100% | Hydrolysis rate inhibition, % [3]: 100% | Hydrolysis rate inhibition, % [8]: 100% | Hydrolysis rate inhibition, % [4]: 100% | Hydrolysis rate inhibition, % [5]: 100% | Hydrolysis rate inhibition, % [6]: 100%

SMILES: Cc1cc(OCC[n+]2ccc(N)cc2)cc(OS(=O)(=O)c2ccccc2)c1 [HC-019s-IOC, 4-amino-1-(2-(3-methyl-5-(benzene Sulfonyloxy)phenoxy)ethyl)-pyridinium iodide]
inhibition at 0.0025 µM: 55% | inhibition at 0.005 µM: 88% | inhibition at 0.0125 µM: 90% | inhibition at 0.025 µM: 88% | inhibition at 0.05 µM: 95% | inhibition at 0.125 µM: 94%

SMILES: Cc1cc(OCCSC(=N)N)cc(OS(=O)(=O)c2ccccc2)c1.I [HC-020s-IOC, 2-(3-methyl-5-(benzenesulfonyloxy)phenoxy)ethyl-isothioronium iodide]
inhibition at 0.005 µM: 54% | inhibition at 0.0125 µM: 46% | inhibition at 0.025 µM: 59% | inhibition at 0.05 µM: 68% | inhibition at 0.125 µM: 81% | inhibition at 0.25 µM: 94% | inhibition at 0.5 µM (concentration of compound 500 nM): 96% | Hydrolysis rate inhibition, % (concentration of compound 1.25 mcM): 98% | Hydrolysis rate inhibition, % [9]: 99% | Hydrolysis rate inhibition, % [3]: 99%

Hydrolysis rate inhibition, % [10]: 5% | Hydrolysis rate inhibition, % [6]: 8% | Hydrolysis rate inhibition, % [11]: 4% | Hydrolysis rate inhibition, % [12]: 4%
SMILES: CN(C)c1cc[n+](CCc2nc3cc(S(=O)(=O)N(C)c4ccccc4)ccc3n2C)cc1.[Cl-] [HC-021s-IOC]

Hydrolysis rate inhibition, % [13]: 21% | Hydrolysis rate inhibition, % [1]: 18% | Hydrolysis rate inhibition, % [3]: 27% | Hydrolysis rate inhibition, % [10]: 34% | Hydrolysis rate inhibition, % [5]: 40% | Hydrolysis rate inhibition, % (concentration of compound 130 mcM): 36% | Hydrolysis rate inhibition, % [11]: 51%
SMILES: CNc1ccc(S(=O)(=O)N(C)c2ccccc2)cc1NC(=O)CC[n+]1ccc(N(C)C)cc1.[Cl-] [HC-022s-IOC]

SMILES: Cc1cc(OCCC[n+]2ccc(N)cc2)cc(OS(=O)(=O)c2ccccc2Cl)c1 [HC-023s-IOC, 4-AMINO-1-(3-(3-METHYL-5-(2-CHLOROBENZENE SULFONYLOXY)PHENOXY)PROPYL)-PYRIDINIUM IODIDE]
Hydrolysis rate inhibition, % (concentration of compound 0.7 mcM): 13% | Hydrolysis rate inhibition, % (concentration of compound 1.4 mcM): 34% | Hydrolysis rate inhibition, % (concentration of compound 3.4 mcM): 50% | Hydrolysis rate inhibition, % (concentration of compound 34 mcM): 86% | Hydrolysis rate inhibition, % (concentration of compound 68 mcM): 99% | Hydrolysis rate inhibition, % [11]: 100%

SMILES: Cc1cc(OCC[n+]2ccc(N)cc2)cc(OS(=O)(=O)c2ccccc2Cl)c1 [HC-025s-IOC, 4-amino-1-(2-(3-methyl-5-(2-chlorobenzenesulfonyloxy)phenoxy)ethyl)-pyridinium iodide]
inhibition at 0.00125 µM (concentration of compound 1.25 nM): 69% | inhibition at 0.0025 µM: 52% | inhibition at 0.0063 µM (concentration of compound 6.3 nM): 70% | inhibition at 0.0125 µM: 81% | inhibition at 0.05 µM: 96% | inhibition at 0.125 µM: 98%

SMILES: Cc1cc(OCCCSC(=N)N)cc(OS(=O)(=O)c2ccccc2Cl)c1 [HC-026s-IOC, 3-(3-methyl-5-(2-chlorobenzenesulfonyloxy)phenoxy)propyl-isothiouronium iodide]
inhibition at 0.005 µM: 47% | inhibition at 0.0125 µM: 40% | inhibition at 0.025 µM: 64% | inhibition at 0.125 µM: 68%

Hydrolysis rate inhibition, % [13]: 11% | Hydrolysis rate inhibition, % [1]: 6% | Hydrolysis rate inhibition, % [9]: 24% | Hydrolysis rate inhibition, % [3]: 24% | Hydrolysis rate inhibition, % [8]: 59% | Hydrolysis rate inhibition, % [10]: 72% | Hydrolysis rate inhibition, % [5]: 88% | Hydrolysis rate inhibition, % [6]: 100% | Hydrolysis rate inhibition, % [11]: 100% | Hydrolysis rate inhibition, % [12]: 100%
SMILES: CN(c1ccccc1)S(=O)(=O)c1ccc2c(c1)nc(CC[n+]1ccc(N)cc1)n2C.[Cl-] [HC_027s_IOC]

Hydrolysis rate inhibition, % (concentration of compound 0.1 mcM): 15% | Hydrolysis rate inhibition, % [13]: 34% | Hydrolysis rate inhibition, % [1]: 46% | Hydrolysis rate inhibition, % [7]: 44% | Hydrolysis rate inhibition, % [9]: 63% | Hydrolysis rate inhibition, % [3]: 78% | Hydrolysis rate inhibition, % [10]: 95% | Hydrolysis rate inhibition, % [5]: 95% | Hydrolysis rate inhibition, % [11]: 100% | Hydrolysis rate inhibition, % [12]: 100%
SMILES: CNc1ccc(S(=O)(=O)N(C)c2ccccc2)cc1NC(=O)CC[n+]1ccc(N)cc1.[Cl-] [HC_028s_IOC]

SMILES: Cc1cc(OCCC[n+]2ccc(N)cc2)cc(OS(=O)(=O)c2ccccc2F)c1.[I-] [HC_029s_IOC]
inhibition at 0.05 µM: 8% | inhibition at 0.1 µM: 14% | inhibition at 0.25 µM: 16% | Hydrolysis rate inhibition, % [1]: 25% | Hydrolysis rate inhibition, % [7]: 54% | Hydrolysis rate inhibition, % [9]: 75% | Hydrolysis rate inhibition, % [3]: 81%

SMILES: Cc1cc(OCCC[n+]2ccsc2N)cc(OS(=O)(=O)c2ccccc2F)c1.[I-] [HC_030s_IOC]
inhibition at 0.02 µM: 5% | inhibition at 0.05 µM: 18% | Hydrolysis rate inhibition, % [2]: 72% | Hydrolysis rate inhibition, % [3]: 88% | Hydrolysis rate inhibition, % [8]: 93%

SMILES: Cc1cc(OCCCSC(=N)N)cc(OS(=O)(=O)c2ccccc2F)c1.I [HC_031s_IOC]
inhibition at 0.005 µM: 35% | inhibition at 0.01 µM: 43% | inhibition at 0.02 µM: 49% | inhibition at 0.05 µM: 59% | inhibition at 0.1 µM: 73% | Hydrolysis rate inhibition, % [2]: 99% | Hydrolysis rate inhibition, % [3]: 100%

SMILES: C/N=C(/N)SCCCOc1cc(C)cc(OS(=O)(=O)c2ccccc2Cl)c1.I [HC_032s_IOC]
inhibition at 0.05 µM: 10% | inhibition at 0.1 µM: 17% | Hydrolysis rate inhibition, % [3]: 48% | Hydrolysis rate inhibition, % [8]: 71%

SMILES: C/N=C(/N)SCCOc1cc(C)cc(OS(=O)(=O)c2ccccc2Cl)c1.I [HC_033s_IOC]
inhibition at 0.004 µM (concentration of compound 4 nM): 18% | inhibition at 0.01 µM: 23% | inhibition at 0.02 µM: 24% | inhibition at 0.04 µM: 62% | inhibition at 0.1 µM: 59% | inhibition at 0.2 µM: 74% | Hydrolysis rate inhibition, % (concentration of compound 4 mcM): 100%

inhibition at 0.0025 µM: 29% | inhibition at 0.005 µM: 28% | inhibition at 0.025 µM: 79% | inhibition at 0.05 µM: 88% | Hydrolysis rate inhibition, % [9]: 96%
SMILES: Cc1cc(OCC[n+]2ccc(N)cc2)cc(OS(=O)(=O)c2ccccc2S(C)(=O)=O)c1 [HC_036s_IOC]

inhibition at 0.0025 µM: 43% | inhibition at 0.005 µM: 59% | inhibition at 0.025 µM: 82% | inhibition at 0.05 µM: 86% | Hydrolysis rate inhibition, % [9]: 89%
SMILES: Cc1cc(OCC[n+]2ccc(N)cc2)cc(OS(=O)(=O)c2ccccc2F)c1 [HC_037s_IOC]

inhibition at 0.005 µM: 47% | inhibition at 0.025 µM: 56% | inhibition at 0.05 µM: 85% | Hydrolysis rate inhibition, % [9]: 96%
SMILES: Cc1ccc(S(=O)(=O)Oc2cc(C)cc(OCC[n+]3ccc(N)cc3)c2)cc1 [HC_038s_IOC]

inhibition at 0.0025 µM: 24% | inhibition at 0.005 µM: 44% | inhibition at 0.025 µM: 73% | inhibition at 0.05 µM: 88% | Hydrolysis rate inhibition, % [9]: 98%
SMILES: Cc1cc(OCC[n+]2ccc(N)cc2)cc(OS(=O)(=O)c2ccc(Cl)cc2)c1 [HC_039s_IOC]

inhibition at 0.0025 µM: 4% | inhibition at 0.005 µM: 19% | inhibition at 0.025 µM: 66% | inhibition at 0.05 µM: 75% | Hydrolysis rate inhibition, % [9]: 100%
SMILES: Cc1cc(OCCSC(=N)N)cc(OS(=O)(=O)c2ccccc2S(C)(=O)=O)c1 [HC_040s_IOC]
